Measurements taken from US11807625B2, “Capsid inhibitors for the prevention of HIV” (Gilead Sciences, Inc., priority 2019, dated 2023).
Where two headings read alike, the source gives them in different places.

Assay: PK of compound of Formula (Ia) after single intramuscular dose of solution formulations in Wistar Han rats
Format: in vivo
Settings: for Plasma concentration: 0 h; for Plasma concentration / concentration at 48 h / concentration at 1 h / concentration at 24 h / concentration at 72 h / concentration at 96 h / concentration at 168 h / concentration at 3 h / concentration at 8 h: IM 100 mg/kg; for concentration at 48 h / concentration at 1 h / concentration at 24 h / concentration at 72 h / concentration at 96 h / concentration at 168 h / AUC(0-t) / concentration at 3 h / concentration at 8 h: Wistar Han, rat, plasma, 100 mg/kg; for concentration at 48 h / concentration at 1 h / concentration at 24 h / concentration at 72 h / concentration at 96 h / concentration at 168 h / concentration at 3 h / concentration at 8 h: intramuscular; for AUC(0-t): im, single IM 100 mg/kg, male Wistar Han rats, mean ± SD
Experimental: Formulations containing the compound of Formula (Ia), or a pharmaceutically acceptable salt thereof, were prepared as solutions and optionally administered subcutaneously or intramuscularly to rats, rabbits, and/or dogs.
A solution of about 400 mg/ml of the compound of Formula (Ia) having 21.13 w/w % water, 45.25 w/w % PEG 300, and 33.61 w/w % of a sodium salt of a compound of Formula (Ia) was prepared. The solution was administered intramuscularly to Wistar Han rats at a dose of about 100 mg/kg and beagle dogs at a dose of about 30 mg/kg.
A solution of about 400 mg/ml of the compound of Formula (Ia) having 19.18 w/w % water, 41.09 w/w % PEG 300, 33.61 w/w % of a sodium salt of a compound of Formula (Ia), and 6.12 w/w % poloxamer 188 was prepared. The solution was administered intramuscularly to Wistar Han rats at a dose of about 100 mg/kg and beagle dogs at a dose of about 30 mg/kg.
(§1) A solution of about 500 mg/ml of the compound of Formula (Ia) having 16.93 w/w % water, 36.22 w/w % PEG 300, 41.85 w/w % of a sodium salt of a compound of Formula (Ia), and 5.00% ethanol was prepared. The solution was administered intramuscularly to Wistar Han rats at a dose of about 100 mg/kg and beagle dogs at a dose of about 30 mg/kg.
as §1, with “14.50” for “16.93”, “31.04” for “36.22”, “(Ia), 5.00% ethanol,” for “(Ia),”, “7.61 w/w % poloxamer 188” for “5.00% ethanol”

[1] = Solution H (~400 mg/mL), Wistar Han rats, mean, n = 4, read-out: Plasma concentration, Mean
[2] = Solution K (~500 mg/mL, ethanol), Wistar Han rats, individual animals #1-#4, read-out: Plasma concentration
[3] = Solution K (~500 mg/mL, ethanol), Wistar Han rats, mean, n = 4, read-out: Plasma concentration, Mean
[4] = male, individual rats, solution M, 500 mg/mL, read-out: Plasma concentration
[5] = male, mean, n = 4 rats, solution M, 500 mg/mL, read-out: Plasma concentration
[6] = male, Solution H (~400 mg/mL), Wistar Han rats, mean, n = 4, read-out: Plasma concentration, Mean
[7] = male, Solution J (~400 mg/mL, poloxamer 188), Wistar Han rats, individual animals #1-#4, read-out: Plasma concentration
[8] = male, Solution J (~400 mg/mL, poloxamer 188), Wistar Han rats, mean, n = 4, read-out: Plasma concentration, Mean
[9] = male, Solution K (~500 mg/mL, ethanol), Wistar Han rats, individual animals #1-#4, read-out: Plasma concentration
[10] = male, Solution K (~500 mg/mL, ethanol), Wistar Han rats, mean, n = 4, read-out: Plasma concentration, Mean

Plasma concentration (individual rats, solution M, 500 mg/mL): BLQ
Plasma concentration (Solution H (~400 mg/mL), Wistar Han rats, individual animals #1-#4): BLQ
Plasma concentration (Solution J (~400 mg/mL, poloxamer 188), Wistar Han rats, individual animals #1-#4): BLQ
Plasma concentration (Solution K (~500 mg/mL, ethanol), Wistar Han rats, individual animals #1-#4): BLQ
concentration at 48 h (Solution H (~400 mg/mL), Wistar Han rats, individual animals #1-#4, read-out: Plasma concentration): 0.354 µM
concentration at 1 h [1]: 0.15 µM
concentration at 24 h [1]: 0.439 µM
concentration at 48 h [1]: 0.471 µM
concentration at 72 h [1]: 0.397 µM
concentration at 96 h [1]: 0.477 µM
concentration at 168 h [1]: 0.588 µM
concentration at 72 h [2]: 0.516 µM
concentration at 96 h [2]: 0.537 µM
concentration at 168 h [2]: 0.64 µM
concentration at 1 h [3]: 0.146 µM
concentration at 72 h [3]: 0.433 µM
concentration at 96 h [3]: 0.401 µM
concentration at 168 h [3]: 0.507 µM
AUC(0-t) (male, Solution H (~400 mg/mL; Na salt, water, PEG 300), n = 4, read-out: AUC0-24h): 7.59 ± 2.93 µM·h
AUC(0-t) (male, Solution H (~400 mg/mL; Na salt, water, PEG 300), n = 4, read-out: AUC0-168h): 77.7 ± 26.1 µM·h
AUC(0-t) (male, Solution J (~400 mg/mL; Na salt, water, PEG 300, poloxamer 188), n = 4, read-out: AUC0-24h): 12.1 ± 1.9 µM·h
AUC(0-t) (male, Solution J (~400 mg/mL; Na salt, water, PEG 300, poloxamer 188), n = 4, read-out: AUC0-168h): 82.5 ± 8.7 µM·h
AUC(0-t) (male, Solution K (~500 mg/mL; Na salt, water, PEG 300, ethanol), n = 4, read-out: AUC0-24h): 6.13 ± 1.7 µM·h
AUC(0-t) (male, Solution K (~500 mg/mL; Na salt, water, PEG 300, ethanol), n = 4, read-out: AUC0-168h): 67.4 ± 15.7 µM·h
AUC(0-t) (male, Solution M (~500 mg/mL; Na salt, water, PEG 300, ethanol, poloxamer 188), n = 4, read-out: AUC0-24h): 13.4 ± 2.4 µM·h
AUC(0-t) (male, Solution M (~500 mg/mL; Na salt, water, PEG 300, ethanol, poloxamer 188), n = 4, read-out: AUC0-168h): 92.9 ± 9.6 µM·h
concentration at 1 h [4]: 0.177 µM
concentration at 1 h [5]: 0.184 µM
concentration at 3 h [4]: 0.304 µM
concentration at 3 h [5]: 0.405 µM
concentration at 8 h [4]: 0.443 µM
concentration at 8 h [5]: 0.544 µM
concentration at 24 h [4]: 0.737 µM
concentration at 24 h [5]: 0.75 µM
concentration at 48 h [4]: 0.623 µM
concentration at 48 h [5]: 0.622 µM
concentration at 72 h [5]: 0.426 µM
concentration at 96 h [4]: 0.593 µM
concentration at 96 h [5]: 0.526 µM
concentration at 168 h [4]: 0.504 µM
concentration at 168 h [5]: 0.56 µM
concentration at 3 h (male, Solution H (~400 mg/mL), Wistar Han rats, individual animals #1-#4, read-out: Plasma concentration): 0.179 µM
concentration at 3 h [6]: 0.245 µM
concentration at 8 h [6]: 0.285 µM
concentration at 3 h [7]: 0.463 µM
concentration at 8 h [7]: 0.51 µM
concentration at 24 h [7]: 0.761 µM
concentration at 48 h [7]: 0.716 µM
concentration at 72 h [7]: 0.526 µM
concentration at 96 h [7]: 0.506 µM
concentration at 168 h [7]: 0.481 µM
concentration at 1 h [8]: 0.249 µM
concentration at 3 h [8]: 0.445 µM
concentration at 8 h [8]: 0.507 µM
concentration at 24 h [8]: 0.605 µM
concentration at 48 h [8]: 0.558 µM
concentration at 72 h [8]: 0.452 µM
concentration at 96 h [8]: 0.461 µM
concentration at 168 h [8]: 0.467 µM
concentration at 24 h [9]: 0.438 µM
concentration at 48 h [9]: 0.439 µM
concentration at 3 h [10]: 0.209 µM
concentration at 8 h [10]: 0.218 µM
concentration at 24 h [10]: 0.361 µM
concentration at 48 h [10]: 0.376 µM
SMILES: CC(C)(C#Cc1ccc(-c2ccc(Cl)c3c(NS(C)(=O)=O)nn(CC(F)(F)F)c23)c([C@H](Cc2cc(F)cc(F)c2)NC(=O)Cn2nc(C(F)(F)F)c3c2C(F)(F)[C@@H]2C[C@H]32)n1)S(C)(=O)=O [compound of Formula (Ia)]
